The record followed here is US8957077B2, “Pyrazolopyrimidine PDE 10 inhibitors” (Merck Sharp & Dohme Corp., priority 2010, dated 2015).

pKi: −log10 of the molar value.

human PDE10A2, sequence (Q9Y233 267-1055): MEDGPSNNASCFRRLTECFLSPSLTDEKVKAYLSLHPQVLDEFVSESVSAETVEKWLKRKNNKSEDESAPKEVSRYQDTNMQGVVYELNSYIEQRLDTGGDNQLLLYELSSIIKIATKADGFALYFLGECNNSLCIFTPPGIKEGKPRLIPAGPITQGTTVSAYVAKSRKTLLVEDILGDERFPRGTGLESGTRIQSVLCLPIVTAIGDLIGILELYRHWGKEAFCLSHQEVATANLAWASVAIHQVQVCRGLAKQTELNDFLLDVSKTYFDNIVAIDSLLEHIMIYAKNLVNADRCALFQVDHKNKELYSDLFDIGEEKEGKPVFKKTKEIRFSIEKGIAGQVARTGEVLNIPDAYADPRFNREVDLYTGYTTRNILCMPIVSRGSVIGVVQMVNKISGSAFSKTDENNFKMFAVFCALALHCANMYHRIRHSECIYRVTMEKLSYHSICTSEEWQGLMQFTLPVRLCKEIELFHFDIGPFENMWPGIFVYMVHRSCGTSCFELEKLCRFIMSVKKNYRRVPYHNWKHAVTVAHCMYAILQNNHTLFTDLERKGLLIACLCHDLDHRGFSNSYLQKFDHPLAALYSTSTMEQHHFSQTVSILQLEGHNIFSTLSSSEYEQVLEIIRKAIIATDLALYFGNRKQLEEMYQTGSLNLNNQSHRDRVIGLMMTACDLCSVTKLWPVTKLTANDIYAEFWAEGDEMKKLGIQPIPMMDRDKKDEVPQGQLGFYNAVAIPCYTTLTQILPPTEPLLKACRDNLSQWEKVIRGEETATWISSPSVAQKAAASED

The target in the experiment is human PDE10A2 (Homo sapiens (Human), UniProt Q9Y233). As to the kind of experiment: PDE10 fluorescence polarization (IMAP FP) inhibition assay. The class given is biochemical. Conditions: human PDE10 enzyme, FAM-labeled cAMP substrate, read-out: PDE10A Ki. On the procedure:
The activity of the compounds in accordance with the present invention as PDE10 inhibitors may be readily determined without undue experimentation using a fluorescence polarization (FP) methodology that is well known in the art (Huang, W., et al.,J. Biomol Screen, 2002, 7: 215).
In a typical experiment the PDE10 inhibitory activity of the compounds of the present invention was determined in accordance with the following experimental method. PDE10A2 was amplified from human fetal brain cDNA (Clontech, Mountain View, Calif.) using a forward primer corresponding to nucleotides 56-77 of human PDE10A2 (Accession No. AF127480, Genbank Identifier 4894716), containing a Kozak consensus sequence, and a reverse primer corresponding to nucleotides 2406-2413 of human PDE10A2 (Accession No. AF127480, Genbank Identifier 4894716). Amplification with Easy-A polymerase (Stratagene, La Jolla, Calif.) was 95° C. for 2 minutes followed by thirty three cycles of 95° C. for 40 seconds, 55° C. for 30 seconds, and 72° C. for 2 minutes 48 seconds. Final extension was 72° C. for 7 minutes. The PCR product was TA cloned into pcDNA3.2-TOPO (Invitrogen, Carlsbad, Calif.) according to standard protocol. AD293 cells with 70-80% confluency were transiently transfected with human PDE10A2/pcDNA3.2-TOPO using Lipofectamine 2000 according to manufacturer specifications (Invitrogen, Carlsbad, Calif.). Cells were harvested 48 hours post-transfection and lysed by sonication (setting 3, 10×5 sec pulses) in a buffer containing 20 mM HEPES, 1 mM EDTA and protease inhibitor cocktail (Roche). Lysate was collected by centrifugation at 75,000×g for 20 minutes. Supernatant containing the cytoplasmic fraction was used for evaluation of PDE10A2 activity. The fluorescence polarization assay for cyclic nucleotide phosphodiesterases was performed using an IMAP® FP kit supplied by Molecular Devices, Sunnyvale, Calif. (product # R8139). IMAP® technology has been applied previously to phosphodiesterase assays (Huang, W., et al., J. Biomol Screen, 2002, 7: 215). Assays were performed at room temperature in 384-well microtiter plates with an incubation volume of 20.2 μL. Solutions of test compounds were prepared in DMSO and serially diluted with DMSO to yield 8 μL of each of 10 solutions differing by 3-fold in concentration, at 32 serial dilutions per plate. 100% inhibition is determined using a known PDE10 inhibitor, which can be any compound that is present at 5,000 times its Ki value in the assay described as follows, such as papaverine (see Siuciak, et al. Neuropharmacology (2006) 51:386-396; Becker, et al. Behav Brain Res (2008) 186(2):155-60; Threlfell, et al., J Pharmacol Exp Ther (2009) 328(3):785-795), 2-{-4-[pyridin-4-yl-1-(2,2,2-trifluoroethyl)-1H-pyrazol-3-yl]phenoxymethyl}quinoline succinic acid or 2-[4-(1-methyl-4-pyridin-4-yl-1H-pyrazol-3-yl)-phenoxymethyl]quinoline succinic acid (see Schmidt, et al. J Pharmacol Exp Ther (2008) 325:681-690; Threlfell, et al., J Pharmacol Exp Ther (2009) 328(3): 785-795). 0% of inhibition is determined by using DMSO (1% final concentrations).
A Labcyte Echo 555 (Labcyte, Sunnyvale, Calif.) is used to dispense […] from each well of the titration plate to the 384 well assay plate. A solution of enzyme ( 1/1600 dilution from aliquots; sufficient to produce 20% substrate conversion) and a separate solution of FAM-labeled cAMP PDE from Molecular Devices (product # R7506), at a final concentration of 50 nM are made in the assay buffer (10 mM Tris HCl, pH 7.2, 10 mM MgCl2, 0.05% NaN3 0.01% Tween-20, and 1 mM DTT). The enzyme and the substrate are then added to the assay plates in two consecutive additions of 10 μL, and then shaken to mix. The reaction is allowed to proceed at room temperature for 30 minutes. A binding solution is then made from the kit components, comprised of 80% Solution A, 20% Solution B and binding reagent at a volume of 1/600 the total binding solution. […]
On the technique in general: Polarisation of emitted light reports the rotation of a fluorescent probe.
With `Cc1ncc(CNc2cc(OC[C@H]3C[C@@H]3c3ccccn3)nc3ccnn23)s1` [Compound 1-4, (S,S)-N-[(2-methyl-1,3-thiazol-5-yl)-methyl]-5-{[2-(pyridin-2-yl)cyclopropyl]methoxy} pyrazolo[1,5-a]pyrimidin-7-amine], the pKi (usually the negative decadic logarithm of the Ki, by convention in mol/L) is 9.96.
The value for `COc1ccc([C@H]2C[C@@H]2COc2cc(NCc3oc(C)nc3C)n3nccc3n2)nc1` (stereo in doubt) [Compound 1-3, N-[(2,4-dimethyl-1,3-oxazol-5-yl)methyl]-5-{[2-(5-methoxy-pyridin-2-yl)cyclopropyl]-methoxy}pyrazolo [1,5-a]pyrimidin-7-amine] was 8.89.
The figure for `Cc1nnc(CNc2c(F)c(OC[C@H]3C[C@@H]3c3ccccn3)nc3ccnn23)s1` [Compound 1-18, 6-fluoro-N-[(5-methyl-1,3,4-thiadiazol-2-yl)methyl]-5-{[(1S,2S)-2-(pyridin-2-yl)cyclopropyl]methoxy} pyrazolo[1,5-a] pyrimidin-7-amine] is 10.10.
On to `Cc1nc(C)c(CNc2cc(C3CC3)nc3ccnn23)s1` [Compound 1-9, 5-cyclopropyl-N-[(2,4-dimethyl-1,3-thiazol-5-yl)methyl]pyrazolo [1,5-a]pyrim-idin-7-amine], for which the pKi is 8.04.
The value for `COc1ccc(CCCCc2cc(NCc3sc(C)nc3C)n3nccc3n2)nc1` [Compound 1-10, N-[(2,4-dimethyl-1,3-thiazol-5-yl)methyl]-5-[4-(5-methoxy-pyridin-2-yl)butyl]pyrazolo [1,5-a]pyrimidin-7-amine] was 9.43; that for `Cc1ccc([C@H]2C[C@@H]2COc2cc(Oc3ccc(C)nc3)n3nccc3n2)nc1` [Compound 1-22, 5-{[(1S,2S)-2-(5-methylpyridin-2-yl)cyclopropyl]methoxy}-7-[(6-methylpyridin-3-yl)oxy]pyrazolo[1,5-a] pyrimidine] was 7.70; that for `Cc1nc(C)c(CNc2cc(CCC#Cc3ccc4ccccc4n3)nc3ccnn23)s1` [Compound 1-15, N-[(2,4-dimethyl-1,3-thiazol-5-yl)methyl]-5-[4-(quinolin-2-yl)but-3-yn-1-yl]pyrazolo[1,5-a] pyrimidin-7-amine] was 9.85.
For the molecule `Cc1c(OC[C@H]2C[C@@H]2c2ccccn2)nc2ccnn2c1NCc1cnn(C)c1` [Compound 1-20, 6-methyl-N-[(1-methyl-1H-pyrazol-4-yl)methyl]-5-{[(1S,2S)-2-(pyridin-2-yl)cyclopropyl]methoxy} pyrazolo[1,5-a] pyrimidin-7-amine], the pKi is 8.60.
The value for `Cc1nc(C)c(CNc2cc(C(=O)NC[C@H]3C[C@@H]3c3ccc4ccccc4n3)nc3ccnn23)s1` [Compound 1-23, 7-((2,4-dimethylthiazol-5-yl)methylamino)-N-(((1S,2S)-2-(quinolin-2-yl)cyclopropyl)methyl) pyrazolo[1,5-a] pyrimidine-5-carboxamide] was 9.74; that for `Cc1nc(C)c(CNc2cc(C(=O)NCCc3ccccn3)nc3ccnn23)s1` [Compound 1-25, 7-((2,4-dimethylthiazol-5-yl)methylamino)-N-(2-(pyridin-2-yl)ethyl)pyrazolo [1,5-a] pyrimidine-5-earboxanaide] was 8.96; that for `Cc1nc(C)c(CNc2cc(C(C)C[C@@H]3C[C@H]3c3ccccn3)nc3ccnn23)s1` (stereo in doubt) [Compound 1-13, N-[(2,4-dimethyl-1,3-thiazol-5-yl)methyl]-5-{1-[2-(pyridin-2-yl)cyclopropyl]propan-2-yl}pyrazolo[1,5-a] pyrimidin-7-amine] was 7.11.
